These results are taken from PubChem BioAssay (NCI).

Among the test systems are NCI/ADR-RES ovarian; NCI-H460 lung; RPMI-8226 leukemia; NCI-H522 lung; SK-MEL-28 melanoma.
Holding throughout (experiment): NCI tumour cell line growth inhibition, 48 h

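Method: 48-hour compound exposure of cells in 96-well plates, five concentrations, linear interpolation of endpoints. TGI: total growth inhibition.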

On to `CCc1n[nH]c(=S)n1/N=C\c1ccc(-c2ccccc2Cl)o1`, for which the TGI with NCI/ADR-RES ovarian was 53.7 µM; with NCI-H460 lung it was > 100 µM; in the test on RPMI-8226 leukemia, 51.3 µM; with NCI-H522 lung, 65.8 µM.
Turning to `N#Cc1c2ccc([N+](=O)[O-])cc2c(=O)n2c1sc1ccc(C(F)(F)F)cc12`, the TGI in the test on SK-MEL-28 melanoma, with NCI/ADR-RES ovarian, with NCI-H460 lung, with RPMI-8226 leukemia and in the test with NCI-H522 lung was > 100 µM each time.
For `N#Cc1c(-c2ccc(Cl)cc2)cc(-c2ccc(Nc3ccnc4cc(C(F)(F)F)ccc34)cc2)[nH]c1=O`, the TGI in the test with SK-MEL-28 melanoma was > 34.6 µM; in the test with NCI/ADR-RES ovarian, > 100 µM; in the test on NCI-H460 lung it was > 100 µM; with RPMI-8226 leukemia, > 73.7 µM; in the test on NCI-H522 lung, > 100 µM.
`Nc1ccccc1CCCC(=O)O`: the TGI with SK-MEL-28 melanoma, in the test on NCI/ADR-RES ovarian, in the test on NCI-H460 lung, in the test with RPMI-8226 leukemia and in the test with NCI-H522 lung was > 100 µM each time.
As to `CCCCCCCC1(N=[N+]=[N-])C(=O)c2ccccc2N(C)C1=O` (stereo not drawn), the TGI in the test on SK-MEL-28 melanoma, with NCI/ADR-RES ovarian, in the test with NCI-H460 lung, with RPMI-8226 leukemia and in the test on NCI-H522 lung was > 100 µM each time.
Turning to `O=C1C=CC2(O[C@H](c3ccccc3)[C@@H](c3ccccc3)O2)C(SC(=O)c2ccccc2)C1` (stereo partly drawn), the TGI amounted to 3.55 µM in the test on SK-MEL-28 melanoma, 3.22 µM with NCI/ADR-RES ovarian, 15.6 µM with NCI-H460 lung and 3.25 µM with RPMI-8226 leukemia.
With `COc1ccccc1C1SCC(=O)N1c1ccc(-n2c(-c3ccccc3)nc3ccccc3c2=O)cc1` (stereo not drawn), the TGI in the test on SK-MEL-28 melanoma, in the test with NCI/ADR-RES ovarian, with NCI-H460 lung, in the test with RPMI-8226 leukemia and in the test on NCI-H522 lung was > 100 µM throughout.
Turning to `C/C=C(C)/C=C/CC(C)CCC=C(C)C` (stereo not drawn), the TGI in the test on SK-MEL-28 melanoma, with NCI/ADR-RES ovarian and in the test with NCI-H460 lung was > 100 µM each time.
Consider `O=C1/C(=C/c2cccnc2)C(n2cccc2)c2c(Br)sc(Br)c21` (stereo not drawn), for which the TGI in the test with SK-MEL-28 melanoma is 7.31 µM; in the test on NCI/ADR-RES ovarian it was > 52 µM; with NCI-H460 lung, 18.9 µM; in the test on RPMI-8226 leukemia, 4.94 µM; with NCI-H522 lung it was 12.6 µM.
As to `CCOc1ccc(N=NC2C(=O)N(C(=O)CC(=O)Nc3ccccc3OC)N=C2C)cc1` (stereo not drawn), the TGI in the test with SK-MEL-28 melanoma was > 100 µM; in the test on NCI/ADR-RES ovarian it was > 100 µM; in the test on NCI-H460 lung it was > 42.8 µM; in the test with RPMI-8226 leukemia, > 100 µM; in the test on NCI-H522 lung, 55.3 µM.
In the case of `CC1=NN(c2nc(N)nc(CCl)n2)CC1`, the TGI in the test with SK-MEL-28 melanoma is 56.4 µM; with NCI/ADR-RES ovarian, 74.1 µM; in the test with NCI-H460 lung it was 48.8 µM; with RPMI-8226 leukemia, > 100 µM; with NCI-H522 lung, 4.91 µM.
Taken in the same sequence, the figures for `O=C1/C(=C\c2ccc(Cl)cc2Cl)Sc2scc(-c3cccc([N+](=O)[O-])c3)[n+]21` were 59.2 µM, 41.9 µM, 29.7 µM, 26.9 µM and 4.32 µM.
`O=C(O)CN1CCNCCN(CP(=O)(O)O)CC1`: the TGI with SK-MEL-28 melanoma was > 100 µM; with NCI-H460 lung, > 100 µM; with RPMI-8226 leukemia, > 100 µM; in the test with NCI-H522 lung it was > 26.8 µM.
Take `Cc1ccc(S(=O)(=O)N2CC3OC(C)(C)OC3C2CO)cc1` (stereo not drawn): the TGI in the test with SK-MEL-28 melanoma, in the test on NCI/ADR-RES ovarian, in the test with NCI-H460 lung, in the test on RPMI-8226 leukemia and with NCI-H522 lung was > 100 µM in each case.
`CC(=O)O[C@H]1C(=O)[C@@]2(C)[C@H]([C@H](OC(=O)c3ccccc3)[C@]3(O)C[C@H](OC(=O)[C@H](OC(=O)OCCC(O)CO)[C@@H](NC(=O)c4ccccc4)c4ccccc4)C(C)=C1C3(C)C)[C@]1(OC(C)=O)CO[C@@H]1C[C@@H]2O` (stereo partly drawn): the TGI in the test on NCI/ADR-RES ovarian is > 43.4 µM; in the test with NCI-H460 lung, 19 µM; with NCI-H522 lung, < 0.01 µM.
On to `CC(=O)Oc1ccc2c(c1)Oc1cc(C(C)=O)ccc1C21OC(=O)c2ccccc21` (stereo not drawn), for which the TGI with SK-MEL-28 melanoma, in the test with NCI/ADR-RES ovarian, with NCI-H460 lung, in the test on RPMI-8226 leukemia and in the test with NCI-H522 lung was > 100 µM throughout.
Take `O=c1[nH]nc(Cc2ccccc2)n1/N=C/c1c(O)ccc2ccccc12`: the TGI was 64.2 µM with NCI/ADR-RES ovarian, 82.5 µM with RPMI-8226 leukemia and 35.5 µM in the test with NCI-H522 lung.
As for `Cc1nc(C)c(C(=O)NNC(=O)Cc2ccccc2)cc1C(=O)NNC(=O)Cc1ccccc1`, the TGI with NCI/ADR-RES ovarian, with NCI-H460 lung, with RPMI-8226 leukemia and in the test with NCI-H522 lung was > 100 µM each time.
Turning to `CCOC(=O)c1cc2c(ccc3cc(C(=O)OCC)[nH]c32)[nH]1`, the TGI in the test on SK-MEL-28 melanoma was 25.7 µM; in the test with NCI-H460 lung it was > 100 µM; in the test on RPMI-8226 leukemia it was > 100 µM; in the test on NCI-H522 lung, > 100 µM.
As to `Cc1ccc2c(c1)C(=O)/C(=C\c1ccccc1)CCS2(=O)=O`, the TGI in the test with SK-MEL-28 melanoma is > 66.4 µM; in the test on NCI/ADR-RES ovarian, > 52.2 µM; in the test on NCI-H460 lung it was 24.9 µM; with NCI-H522 lung it was 14.6 µM.
Turning to `CCOP(C)(=O)C(Cc1c[nH]c2ccccc12)C(=O)O` (stereo not drawn), the TGI with SK-MEL-28 melanoma, in the test on NCI/ADR-RES ovarian, in the test on RPMI-8226 leukemia and with NCI-H522 lung was > 100 µM each time.
Take `O=C1CCCCC/C1=C\c1ccc(F)cc1`: the TGI with SK-MEL-28 melanoma, in the test with NCI-H460 lung, with RPMI-8226 leukemia and in the test with NCI-H522 lung was > 100 µM in each case.
As for `COc1c(C)c(C/C=C(\C)CCCCO[Si](C(C)C)(C(C)C)C(C)C)c(OC)c2ccccc12`, the TGI in the test on NCI/ADR-RES ovarian, with NCI-H460 lung and in the test with NCI-H522 lung was > 100 µM throughout.
With `CCC(=O)Nc1ccc(N=Cc2cccc(Oc3ccccc3)c2)cc1`, the TGI in the test with SK-MEL-28 melanoma is > 100 µM; in the test on NCI/ADR-RES ovarian, > 100 µM; in the test with RPMI-8226 leukemia, 63.1 µM; with NCI-H522 lung it was > 100 µM.
For the compound `OCC(CN1CCCCC1)(CN1CCCCC1)CN1CCCCC1`, the TGI in the test with SK-MEL-28 melanoma, in the test on NCI/ADR-RES ovarian, with NCI-H460 lung and in the test with NCI-H522 lung was > 100 µM throughout.
Consider `C#CCOC(=O)c1ccccc1O`, for which the TGI in the test on NCI/ADR-RES ovarian, with NCI-H460 lung, in the test with RPMI-8226 leukemia and in the test on NCI-H522 lung was > 100 µM throughout.
With `N#Cc1ccc(Oc2nc3ccccc3nc2-c2ccccc2)cc1`, the TGI in the test with SK-MEL-28 melanoma, in the test with NCI-H460 lung, with RPMI-8226 leukemia and in the test with NCI-H522 lung was > 100 µM throughout.
In the case of `COc1cc2c(cc1OCCCOc1cc(-c3ccc(F)cc3)nc(C)n1)N=C[C@@H]1CCCN1C2=O`, the TGI is 44.1 µM with SK-MEL-28 melanoma, > 100 µM with NCI-H460 lung, > 100 µM with RPMI-8226 leukemia and 37.2 µM in the test with NCI-H522 lung.
For `CC(=O)OC1CCN(C(=O)c2ccccc2)CC1CC1(c2cc3ccccc3[nH]2)OCCO1` (stereo not drawn), the TGI with SK-MEL-28 melanoma was > 100 µM; with NCI/ADR-RES ovarian it was > 100 µM; with RPMI-8226 leukemia, 70.4 µM; in the test with NCI-H522 lung it was > 100 µM.
As to `CC(C)=CCC[C@@H](C)C1=C(O)C(Nc2ccccc2Br)=C(C)C(=O)C1=O`, the TGI in the test with SK-MEL-28 melanoma is > 80.6 µM; in the test with NCI/ADR-RES ovarian, 28.8 µM; with NCI-H460 lung, > 64.8 µM; in the test on RPMI-8226 leukemia it was > 58.6 µM.
For the compound `COc1ccc(NC(=O)CC(=O)N2N=C(N3CCCCC3)CC2c2ccccc2)cc1` (stereo not drawn), the TGI in the test with SK-MEL-28 melanoma, with NCI/ADR-RES ovarian, with NCI-H460 lung and in the test on NCI-H522 lung was > 100 µM each time.
Regarding `Cc1ccc(CC(=O)Nc2ccc(NC(=O)/C=C/NC(=O)/C=C/c3ccc(-c4ccccc4)cc3)cc2C(=O)c2ccccc2)cc1`, the TGI was 9 µM in the test on SK-MEL-28 melanoma, > 100 µM in the test on NCI/ADR-RES ovarian, 4.6 µM with NCI-H460 lung and 14.7 µM with RPMI-8226 leukemia.
On to `Cc1ccc(/C(O)=C/c2nc3ccccc3oc2=O)cc1`, for which the figures for the TGI in the test with NCI/ADR-RES ovarian, in the test with NCI-H460 lung and in the test with NCI-H522 lung were > 100 µM, > 100 µM and 90.1 µM, respectively.
On to `CCN(CC)CC(=O)Nc1c(C(N)=O)nnn1Cc1cc(Cl)c(C(=O)c2ccc(Cl)cc2)c(Cl)c1`, for which the TGI in the test with SK-MEL-28 melanoma was 33.3 µM; in the test on NCI/ADR-RES ovarian, 34.7 µM; with RPMI-8226 leukemia, 77.7 µM; in the test with NCI-H522 lung it was 41.3 µM.
With `C[C@H]1O[C@@H](c2c(O)ccc3ccccc23)C[C@@H](N(C)C)C1O` (stereo partly drawn), the TGI in the test on SK-MEL-28 melanoma, in the test with NCI/ADR-RES ovarian, in the test on NCI-H460 lung and in the test on NCI-H522 lung was > 100 µM throughout.
As to `COc1ccc2cc(C(C)C(O)c3cc(F)c(F)c(F)c3F)ccc2c1` (stereo not drawn), the TGI in the test with SK-MEL-28 melanoma, in the test with NCI/ADR-RES ovarian, in the test on NCI-H460 lung and in the test with RPMI-8226 leukemia was > 100 µM each time.
Regarding `C=CCCCC1CCCNC1=O` (stereo not drawn), the TGI in the test on SK-MEL-28 melanoma, in the test on NCI-H460 lung, with RPMI-8226 leukemia and in the test on NCI-H522 lung was > 100 µM throughout.
As to `CCOC(=O)Cc1nnc2c(-c3ccccc3)nc3ccccc3n12`, the TGI in the test on SK-MEL-28 melanoma, in the test on NCI/ADR-RES ovarian, in the test with NCI-H460 lung and in the test on RPMI-8226 leukemia was > 100 µM each time.
